The text below walks through data of patent publication US20140255392A1 (BAYER INTELLECTUAL PROPERTY GMBH, priority 2011, published 2014).

The structures appear in SMILES notation.

This test deals with T1, human kinase Mps-1 (Homo sapiens, UniProt P33981).
T1 construct: N-terminally GST-tagged human full length recombinant Mps-1 kinase; GST (N); purchased Invitrogen, Karslruhe, Germany PV4071
T1 sequence (P33981 1-857): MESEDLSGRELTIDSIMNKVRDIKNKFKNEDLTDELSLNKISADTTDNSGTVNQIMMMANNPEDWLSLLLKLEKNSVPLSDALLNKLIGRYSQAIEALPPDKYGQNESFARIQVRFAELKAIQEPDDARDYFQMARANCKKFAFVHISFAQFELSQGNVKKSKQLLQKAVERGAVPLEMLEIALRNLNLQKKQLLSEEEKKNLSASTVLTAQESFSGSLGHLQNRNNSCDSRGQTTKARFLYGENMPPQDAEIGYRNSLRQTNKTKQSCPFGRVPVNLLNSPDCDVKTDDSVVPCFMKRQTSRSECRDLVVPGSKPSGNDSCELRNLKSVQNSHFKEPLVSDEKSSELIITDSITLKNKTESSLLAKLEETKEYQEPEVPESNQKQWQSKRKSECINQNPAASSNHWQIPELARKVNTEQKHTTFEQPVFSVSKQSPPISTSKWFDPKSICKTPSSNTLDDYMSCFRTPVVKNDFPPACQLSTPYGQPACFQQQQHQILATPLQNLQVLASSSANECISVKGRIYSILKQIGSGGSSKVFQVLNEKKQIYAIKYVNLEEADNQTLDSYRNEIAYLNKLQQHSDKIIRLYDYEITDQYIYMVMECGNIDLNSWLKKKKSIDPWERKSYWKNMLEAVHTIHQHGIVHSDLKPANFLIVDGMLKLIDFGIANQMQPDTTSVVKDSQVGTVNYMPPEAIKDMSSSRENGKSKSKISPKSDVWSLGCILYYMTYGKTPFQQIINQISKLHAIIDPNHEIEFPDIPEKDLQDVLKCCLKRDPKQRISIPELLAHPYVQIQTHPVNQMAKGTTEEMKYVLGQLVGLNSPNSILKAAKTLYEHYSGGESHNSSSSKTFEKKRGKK
As to the kind of experiment: Mps-1 kinase assay (TR-FRET). It counts as biochemical. As to conditions: N-terminally GST-tagged human full length recombinant Mps-1; 10 μM ATP; 1 μM peptide substrate; 60 min at 22° C. A digest of the protocol:
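Next, Eu-labelled anti-phospho(Ser/Thr) antibody and SA-XLent bind for 1 h at 22° C. Finally, energy transfer quantifies phosphorylated product.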
For orientation: TR-FRET usually uses a lanthanide donor and a delayed reading to cut background.
The IC50 is the point on the concentration scale where inhibition reaches its midpoint. As for `Cc1cc(-c2cnc3c(NCCC(F)(F)F)cc(-c4ccccc4O)cn23)ccc1C(=O)NC1CC1` [Example 132, N-cyclopropyl-4-{6-(2-hydroxyphenyl)-8-[(3,3,3-trifluoropropyl)amino]imidazo[1,2-a]pyridin-3-yl}-2-methylbenzamide], the IC50 is 1.1 nM.
In the case of `CNC(=O)c1ccc(-c2cnc3c(NCCC(F)(F)F)cc(-c4ccccc4O)cn23)cc1C` [Example 133, 4-{6-(2-Hydroxyphenyl)-8-[(3,3,3-trifluoropropyl)amino]imidazo[1,2-a]pyridin-3-yl}-N,2-dimethylbenzamide] it was 12.6 nM.
In the case of `CCNC(=O)c1ccc(-c2cnc3c(NCCC(F)(F)F)cc(-c4ccccc4O)cn23)cc1C` [Example 134, N-ethyl-4-{6-(2-hydroxyphenyl)-8-[(3,3,3-trifluoropropyl)amino]imidazo[1,2-a]pyridin-3-yl}-2-methylbenzamide] it was 13.7 nM.
In the case of `Cc1cc(-c2cnc3c(NCCC(F)(F)F)cc(Oc4cccc(O)c4)cn23)ccc1C(=O)NC1CC1` [Example 136, N-cyclopropyl-4-{6-(3-hydroxyphenoxy)-8-[(3,3,3-trifluoropropyl)amino]imidazo[1,2-a]pyridin-3-yl}-2-methylbenzamide] it was 0.5 nM; in that of `Cc1cc(-c2cnc3c(NCCC(F)(F)F)cc(Oc4cccc(O)c4)cn23)ccc1C(=O)NC1(C)CC1` [Example 137, 4-{6-(3-Hydroxyphenoxy)-8-[(3,3,3-trifluoropropyl)amino]imidazo[1,2-a]pyridin-3-yl}-2-methyl-N-(1-methylcyclopropyl)benzamide], 2.2 nM; in that of `CCNC(=O)c1ccc(-c2cnc3c(NCCC(F)(F)F)cc(Oc4cccc(O)c4)cn23)cc1C` [Example 138, N-ethyl-4-{6-(3-hydroxyphenoxy)-8-[(3,3,3-trifluoropropyl)amino]imidazo[1,2-a]pyridin-3-yl}-2-methylbenzamide], 1.3 nM.
Take `CNC(=O)c1ccc(-c2cnc3c(NCCC(F)(F)F)cc(Oc4cccc(O)c4)cn23)cc1C` [Example 139, 4-{6-(3-Hydroxyphenoxy)-8-[(3,3,3-trifluoropropyl)amino]imidazo[1,2-a]pyridin-3-yl}-N,2-dimethylbenzamide]: the IC50 worked out at 1.1 nM.
For the molecule `CNC(=O)c1ccc(-c2cnc3c(NCCC(F)(F)F)cc(-c4ccc(C(=O)OC)c(C)c4)cn23)cc1C` [Example 140, Methyl 2-methyl-4-{3-[3-methyl-4-(methylcarbamoyl)phenyl]-8-[(3,3,3-trifluoropropyl)amino]imidazo[1,2-a]pyridin-6-yl}benzoate], the concentration for half-maximal inhibition (IC50) was found to be 36.1 nM.
In the case of `Cc1cc(-c2cnc3c(NCCC(F)(F)F)cc(CCO)cn23)ccc1C(=O)NC1CC1` [Example 141, N-cyclopropyl-4-{6-(2-hydroxyethyl)-8-[(3,3,3-trifluoropropyl)amino]imidazo[1,2-a]pyridin-3-yl}-2-methylbenzamide] it was 26.2 nM; in that of `CNC(=O)c1ccc(-c2cnc3c(NCCC(F)(F)F)cc(CCO)cn23)cc1C` [Example 142, 4-{6-(2-Hydroxyethyl)-8-[(3,3,3-trifluoropropyl)amino]imidazo[1,2-a]pyridin-3-yl}-N,2-dimethylbenzamide], 244 nM.
In the case of `COc1c(F)cccc1Oc1cc(NCCC(F)(F)F)c2ncc(-c3ccc(C(=O)NC4CC4)c(C)c3)n2c1` [Example 146, N-cyclopropyl-4-{6-(3-fluoro-2-methoxyphenoxy)-8-[(3,3,3-trifluoropropyl)amino]imidazo[1,2-a]pyridin-3-yl}-2-methylbenzamide] it was 3.2 nM.
In the case of `CNC(=O)c1ccc(-c2cc(NCCC(F)(F)F)c3ncc(-c4ccc(C(=O)NC5CC5)c(C)c4)n3c2)cc1C` [Example 147, 4-{3-[4-(cyclopropylcarbamoyl)-3-methylphenyl]-8-[(3,3,3-trifluoropropyl)amino]imidazo[1,2-a]pyridin-6-yl}-N,2-dimethylbenzamide] it was 0.5 nM; in that of `CCNC(=O)c1ccc(-c2cc(NCCC(F)(F)F)c3ncc(-c4ccc(C(=O)NC5CC5)c(C)c4)n3c2)cc1C` [Example 148, 4-{3-[4-(cyclopropylcarbamoyl)-3-methylphenyl]-8-[(3,3,3-trifluoropropyl)amino]imidazo[1,2-a]pyridin-6-yl}-N-ethyl-2-methylbenzamide], 1 nM; in that of `Cc1cc(-c2cnc3c(NCCC(F)(F)F)cc(-c4ccc(C(=O)NC5(C)CC5)c(C)c4)cn23)ccc1C(=O)NC1CC1` [Example 149, 4-{3-[4-(cyclopropylcarbamoyl)-3-methylphenyl]-8-[(3,3,3-trifluoropropyl)amino]imidazo[1,2-a]pyridin-6-yl}-2-methyl-N-(1-methylcyclopropyl)benzamide], 3 nM.
Take `Cc1cc(-c2cnc3c(NCCC(F)(F)F)cc(-c4ccc(C(=O)NC5(C#N)CC5)c(C)c4)cn23)ccc1C(=O)NC1CC1` [Example 150, 4-(6-{4-[(1-cyanocyclopropyl)carbamoyl]-3-methylphenyl}-8-[(3,3,3-trifluoropropyl)amino]imidazo[1,2-a]pyridin-3-yl)-N-cyclopropyl-2-methylbenzamide]: the IC50 turned out to be 0.8 nM.
Regarding `Cc1cc(-c2cnc3c(NCCC(F)(F)F)cc(-c4ccc(C(=O)NC5(CO)CC5)c(C)c4)cn23)ccc1C(=O)NC1CC1` [Example 151, 4-{3-[4-(cyclopropylcarbamoyl)-3-methylphenyl]-8-[(3,3,3-trifluoropropyl)amino]imidazo[1,2-a]pyridin-6-yl}-N-[1-(hydroxymethyl)cyclopropyl]-2-methylbenzamide], the IC50 is 2.6 nM.
In the case of `Cc1cc(-c2cc(NCCC(F)(F)F)c3ncc(-c4ccc(C(=O)NC5CC5)c(C)c4)n3c2)ccc1C(N)=O` [Example 153, 4-{6-(4-carbamoyl-3-methylphenyl)-8-[(3,3,3-trifluoropropyl)amino]imidazo[1,2-a]pyridin-3-yl}-N-cyclopropyl-2-methylbenzamide] it was 0.5 nM.
In the case of `CNC(=O)c1ccc(-c2cnc3c(NCCC(F)(F)F)cc(-c4ccc(C(=O)NC5(CO)CC5)c(C)c4)cn23)cc1C` [Example 155, 4-{6-(4-{[1-(hydroxymethyl)cyclopropyl]carbamoyl}-3-methylphenyl)-8-[(3,3,3-trifluoropropyl)amino]imidazo[1,2-a]pyridin-3-yl}-N,2-dimethylbenzamide] it was 21.1 nM; in that of `CNC(=O)c1ccc(-c2cnc3c(NCCC(F)(F)F)cc(-c4ccc(C(=O)NC5(C#N)CC5)c(C)c4)cn23)cc1C` [Example 156, 4-(6-{4-[(1-cyanocyclopropyl)carbamoyl]-3-methylphenyl}-8-[(3,3,3-trifluoropropyl)amino]imidazo[1,2-a]pyridin-3-yl)-N,2-dimethylbenzamide], 21.3 nM.
In the case of `CNC(=O)c1ccc(-c2cnc3c(NCCC(F)(F)F)cc(-c4ccc(C(=O)NC5(C)CC5)c(C)c4)cn23)cc1C` [Example 157, 2-methyl-N-(1-methylcyclopropyl)-4-{3-[3-methyl-4-(methylcarbamoyl)phenyl]-8-[(3,3,3-trifluoropropyl)amino]imidazo[1,2-a]pyridin-6-yl}benzamide] it was 15.3 nM; in that of `CNC(=O)c1ccc(-c2cnc3c(NCCC(F)(F)F)cc(-c4ccc(C(=O)NC5CC5)c(C)c4)cn23)cc1C` [Example 158, 4-{6-[4-(cyclopropylcarbamoyl)-3-methylphenyl]-8-[(3,3,3-trifluoropropyl)amino]imidazo[1,2-a]pyridin-3-yl}-N,2-dimethylbenzamide], 6.2 nM; in that of `CCNC(=O)c1ccc(-c2cc(NCCC(F)(F)F)c3ncc(-c4ccc(C(=O)NC)c(C)c4)n3c2)cc1C` [Example 159, 4-{6-[4-(ethylcarbamoyl)-3-methylphenyl]-8-[(3,3,3-trifluoropropyl)amino]imidazo[1,2-a]pyridin-3-yl}-N,2-dimethylbenzamide], 9.1 nM.
Take `CNC(=O)c1ccc(-c2cnc3c(NCCC(F)(F)F)cc(-c4ccc(C(N)=O)c(C)c4)cn23)cc1C` [Example 160, 4-{6-(4-carbamoyl-3-methylphenyl)-8-[(3,3,3-trifluoropropyl)amino]imidazo[1,2-a]pyridin-3-yl}-N,2-dimethylbenzamide]: the IC50 worked out at 2.3 nM.
For the molecule `Cc1cc(-c2cnc3c(NCC(F)F)cc(Oc4cccc(F)c4)cn23)ccc1C(=O)NC1CC1` [Example 161, N-cyclopropyl-4-{8-[(2,2-difluoroethyl)amino]-6-(3-fluorophenoxy)imidazo[1,2-a]pyridin-3-yl}-2-methylbenzamide], the concentration for half-maximal inhibition (IC50) was 2.3 nM.
